Literature values in patent US4897502A, “Process for making solid polyhalotriaryl phosphate esters” (priority 1987, dated 1990).
Where two headings read alike, the source gives them in different places.

How the values were obtained:
[1] = 0° C.

Row | Molecule | Hansen Dispersion Component (Table I) | Hildebrand Solubility Parameter (Table I) | also measured
1 | CCC(C)O (centres unmarked) [Example 2-butanol, 2-butanol] | 14.5 SI | 22.7 SI | 
2 | CC(C)O [Example 2-propanol, 2-propanol] |  |  | Hansen Dispersion Component (comparison liquids): 7.6
3 | CCCCC(CC)CO (centres unmarked) [2-ethylhexanol] |  | 20.8 SI | 
4 | CCCC(C)O (centres unmarked) [Example 2-pentanol, 2-pentanol] | 15.0 SI | 22.2 SI | 
5 | amyl alcohol [amyl alcohol (pract.)] | 14.5 SI |  | 
6 | CCCCCCCCO [Example 1-octanol, 1-octanol] | 15.2 SI | 21.1 SI | 
7 | CCCCCCCCCCO [Example 1-decanol, 1-decanol] | 15.4 SI | 20.5 SI | 
8 | CCCCCCO [Example 1-hexanol, 1-hexanol] | 15.0 SI |  | 
9 | CCCCCC(C)O (centres unmarked) [Example 2-heptanol, 2-heptanol] | 14.6 SI |  | 
10 | CCCCC(O)CC (centres unmarked) [Example 3-heptanol, 3-heptanol] | 14.6 SI | 20.2 SI | 
11 | CCCCCCCO [Example 1-heptanol, 1-heptanol] | 15.1 SI |  | 
12 | CO [methanol] |  |  | Hansen Dispersion Component (comparison liquids): 7.4
13 | [Cl-].[Cl-].[Mg+2] [magnesium chloride] |  |  | magnesium chloride dissolving in 100 g ethanol ([1]; 100 g ethanol): 3.61 g; magnesium chloride dissolving in 100 g methanol ([1]; 100 g methanol): 15.5 g
14 | CCCCCO [Example 1-pentanol, 1-pentanol] | 14.4 SI |  | 
